From patent US20230219961A1, “Pyridine acetamide derivative serving as CDK inhibitor, and preparation method therefor and use thereof” (Suzhou AlphaMa Biotechnology Co., Ltd., priority 2020, published 2023)

Experiments:
Mv4-11 cells = assay: Inhibition of the proliferation of Mv4-11 cells (CCK8); type: cell-based
Protocol: The inhibition effect of the compounds of the present disclosure on the proliferation of Mv4-11 cells (ATCC:CRL-9591™) in vitro was determined by the following method:
1) Cell inoculation: Mv4-11 cells with good growing state in logarithmic growth phase were inoculated into a 96-well plate at 20000 cells per well and 50 uL, and cultured at 37° C. and under 5% CO2 condition for 2-4 h.
2) Administration: The compound was diluted with 1640 medium containing 10% FBS and 1% PS: 0.4 uL of the compound with an initial concentration of 1 mM was placed in a dilution plate, each added with 199.6 uL of the above culture medium, and gradiently diluted 4-fold, so that the final concentration in the added cell was 1000, 250, 62.5, 15.625, 3.91, 0.98, 0.24, 0.06 nM. 50 µL of the medium containing the compound was sequentially added, and it was placed in a 37° C., 5% CO2 cell incubator for 48 hours.
3) Detection: 10uL CCK8 (Dojindo, CK 04) solution was added to each well, incubated in 37° C. 5% CO2 cell incubator for 2 hours, and then the OD450 value was read by Synegry H1(BioTek) multimode microplate reader.
4) Calculation: The IC50 value was calculated using Graphpad prism 5.0 software according to the concentration of the compound and the corresponding signal value.

CDK9 = target: T1, CDK9 (Homo sapiens, UniProt P50750); assay: Inhibitory effect on the kinase activity of CDK9 in vitro (Caliper); type: biochemical; settings: 10 uM ATP, 0.2 ug/uL CTD3 peptide; read-out: CDK 9 IC50
T1 construct: purchased Millipore 14-685 M
Protocol: (§1) The detection of the inhibitory effect of the compounds of the present disclosure on the kinase activity of CDK7/CDK9 in vitro was determined by the following method:
(§2) 1) The compound was accurately weighed and dissolved in DMSO (Sigma, D2650) to a concentration of 100 mM for later use. The compound was diluted to 5-fold of a desired highest concentration, and diluted 4-fold into 6 concentration gradients, allowing the final concentration of the compound in the reaction system to be CDK7: 3000, 750, 188, 47, 12, 3 nM; CDK9: 100, 25, 6.25, 1.56, 0.39, 0.098 nM. 5 ul was taken to a 384-well plate (Corning, 4512).
(§3) 2) Kinase reaction: 10uL protein kinase (CDK7: Eurofilns,14-476 M; CDK9: Millipore,14-685 M) solution was added to the 384-well plate (Corning, 4512) containing the compound, and allowed to stand at room temperature for 10 min; a mixed solution of ATP(Sigma, A7699) and substrate polypeptide (CDK7: 77 uM ATP&0.2ug/uL CTD3 peptide (GL Biochem,SY356885); CDK9: 10 uM ATP&0.2 ug/uL CTD3 peptide (GL Biochem,SY356885)) was added, and allowed to stand at 28° C. for a short time; and then a stop solution was added to terminate the reaction at 25 uL per well.
(§4) 3) Detection: Data was collected by Caliper.
(§5) 4) Calculation: The IC50 value was calculated by Graphpad prism 5.0 software according to the concentration of the compound and the corresponding signal value.

CDK7 = target: T2, CDK7 (Homo sapiens, UniProt P50613); assay: Inhibitory effect on the kinase activity of CDK7 in vitro (Caliper); type: biochemical; settings: 77 uM ATP, 0.2 ug/uL CTD3 peptide; read-out: CDK 7 IC50
T2 construct: purchased Eurofilns (sic; Eurofins) 14-476 M
Protocol: as §1, §2, §3, §4, §5

T2 sequence (P50613 whole entry): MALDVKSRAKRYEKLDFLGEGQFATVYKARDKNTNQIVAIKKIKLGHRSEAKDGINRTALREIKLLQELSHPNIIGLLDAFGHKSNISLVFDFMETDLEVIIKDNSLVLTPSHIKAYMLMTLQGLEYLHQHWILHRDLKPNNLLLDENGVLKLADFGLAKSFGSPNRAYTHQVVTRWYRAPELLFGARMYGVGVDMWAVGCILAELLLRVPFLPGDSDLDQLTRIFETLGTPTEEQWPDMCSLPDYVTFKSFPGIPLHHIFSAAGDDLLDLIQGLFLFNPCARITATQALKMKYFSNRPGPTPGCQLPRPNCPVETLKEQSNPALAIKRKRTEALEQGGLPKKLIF
T2 sequence (P51946 whole entry partner): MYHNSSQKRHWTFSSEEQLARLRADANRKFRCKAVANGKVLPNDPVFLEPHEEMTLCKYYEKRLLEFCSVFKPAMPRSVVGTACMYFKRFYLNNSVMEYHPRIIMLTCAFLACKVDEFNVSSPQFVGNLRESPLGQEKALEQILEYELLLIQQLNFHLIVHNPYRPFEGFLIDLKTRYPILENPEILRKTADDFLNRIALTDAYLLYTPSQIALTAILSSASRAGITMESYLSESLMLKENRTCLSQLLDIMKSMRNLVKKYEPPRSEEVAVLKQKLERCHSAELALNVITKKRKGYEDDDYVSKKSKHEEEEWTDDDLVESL
T2 sequence (P51948 whole entry partner): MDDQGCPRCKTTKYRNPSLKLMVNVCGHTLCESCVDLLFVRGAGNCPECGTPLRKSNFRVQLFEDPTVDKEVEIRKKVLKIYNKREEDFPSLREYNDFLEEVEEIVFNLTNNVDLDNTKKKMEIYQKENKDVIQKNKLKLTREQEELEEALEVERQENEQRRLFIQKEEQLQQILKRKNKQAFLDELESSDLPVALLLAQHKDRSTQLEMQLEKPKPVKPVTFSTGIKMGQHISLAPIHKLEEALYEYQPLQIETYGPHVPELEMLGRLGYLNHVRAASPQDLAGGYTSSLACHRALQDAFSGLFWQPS
T1 sequence (P50750 whole entry): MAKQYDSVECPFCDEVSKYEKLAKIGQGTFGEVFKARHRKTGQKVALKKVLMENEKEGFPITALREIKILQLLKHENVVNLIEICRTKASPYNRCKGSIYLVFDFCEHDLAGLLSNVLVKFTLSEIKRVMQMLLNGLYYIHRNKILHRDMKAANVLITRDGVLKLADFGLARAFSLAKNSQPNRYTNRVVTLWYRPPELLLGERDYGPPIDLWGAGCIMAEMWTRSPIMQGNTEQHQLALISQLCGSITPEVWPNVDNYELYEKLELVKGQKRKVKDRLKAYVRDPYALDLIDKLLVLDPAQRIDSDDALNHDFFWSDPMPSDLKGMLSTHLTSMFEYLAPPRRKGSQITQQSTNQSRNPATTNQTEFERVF
T1 sequence (O60563 whole entry partner): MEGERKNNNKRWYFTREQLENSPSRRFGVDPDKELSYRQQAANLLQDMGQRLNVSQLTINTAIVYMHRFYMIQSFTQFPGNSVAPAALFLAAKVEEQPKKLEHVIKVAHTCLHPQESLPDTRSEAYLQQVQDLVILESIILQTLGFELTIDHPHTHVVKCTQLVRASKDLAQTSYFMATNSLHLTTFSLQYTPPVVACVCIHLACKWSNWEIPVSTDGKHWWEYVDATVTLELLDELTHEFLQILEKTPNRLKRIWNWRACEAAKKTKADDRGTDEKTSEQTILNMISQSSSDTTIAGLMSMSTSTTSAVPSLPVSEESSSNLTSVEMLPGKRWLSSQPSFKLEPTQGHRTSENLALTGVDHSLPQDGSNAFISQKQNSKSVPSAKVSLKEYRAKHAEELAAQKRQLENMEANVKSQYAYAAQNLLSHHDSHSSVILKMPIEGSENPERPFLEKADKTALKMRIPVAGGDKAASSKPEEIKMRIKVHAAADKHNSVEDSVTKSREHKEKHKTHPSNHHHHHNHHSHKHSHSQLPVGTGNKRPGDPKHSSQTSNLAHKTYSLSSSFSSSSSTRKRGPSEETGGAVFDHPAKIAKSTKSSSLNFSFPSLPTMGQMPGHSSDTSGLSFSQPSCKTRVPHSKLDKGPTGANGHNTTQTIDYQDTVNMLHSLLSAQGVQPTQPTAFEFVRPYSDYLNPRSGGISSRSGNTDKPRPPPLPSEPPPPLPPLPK

| Compound | IC50 (Mv4-11 cells; Homo sapiens, MV4-11, 48 h) [nM] | IC50 (CDK9) [nM] | IC50 (CDK7) [nM] | IC50 (Mv4-11 cells; 48 hours) [nM] |
| --- | --- | --- | --- | --- |
| C[C@H](C(=O)Nc1cc(-c2cnn3c2CC(C)(C)C3)c(Cl)cn1)c1cccnc1 [Compound 11-1, (S)-N-(5-chloro-4-(5,5-dimethyl-5,6-dihydro-4H-pyrrolo[1,2-b]pyrazol-3-yl)pyridin-2-yl)-2-(pyridin-3-yl)propionamide (assumed)] | 893 | – | – | – |
| CC1(C)Cc2c(-c3cc(NC(=O)Cc4cccc(NC(=O)CC#N)c4)ncc3Cl)cnn2C1 [Compound 9, N-(5-chloro-4-(5,5-dimethyl-5,6-dihydro-4 H-pyrrolo[1,2-b]pyrazol-3-yl)pyridin-2-yl) -2-(3-(2-cyanoacetylamino)phenyl)acetamide] | 13 | – | – | – |
| C[C@H](C(=O)Nc1cc(-c2cnn3c2CC(C)(C)C3)c(Cl)cn1)c1ccnc(C#N)c1 [Compound 15-1, (S)-N-(5-chloro-4-(5,5-dimethyl-5,6-dihydro-4H-pyrrolo[1,2-b]pyrazol-3-yl)pyridin-2-yl)-2-(2-cyanopyridin-4-yl)propionamide (assumed)] | 11.2 | 5.9 | – | – |
| CC1(C)Cc2c(-c3cc(NC(=O)Cc4cccc(C#N)n4)ncc3Cl)cnn2C1 [Compound 7, N-(5-chloro-4-(5,5-dimethyl-5,6-dihydro-4 H-pyrrolo[1,2-b]pyrazol-3-yl)pyridin-2-yl) -2-(6-cyanopyridin-2-yl)acetamide] | 8.2 | 1.7 | 118 | – |
| CC(=O)Nc1cccc([C@H](C)C(=O)Nc2cc(-c3cnn4c3CC(C)(C)C4)c(Cl)cn2)c1 [Compound 14-1, (S)-2-(3-acetylacetylaminophenyl)-N-(5-chloro-4-(5,5-dimethyl-5,6-dihydro-4H-pyrrolo [1,2-b]pyrazol-3-yl)pyridin-2-yl)propionamide (assumed)] | 10.1 | 2.3 | – | – |
| CC1(C)Cc2c(-c3cc(NC(=O)Cc4ccncc4)ncc3Cl)cnn2C1 [Compound 5, N-(5-chloro-4-(5,5-dimethyl-5,6-dihydro-4 H-pyrrolo[1,2-b]pyrazol-3-yl)pyridin-2-yl) -2-(pyridin-4-yl)acetamide] | 26 | – | – | – |
| C=CC(=O)NCc1ccc(-c2ccc([C@H](C)C(=O)Nc3cc(-c4cnn5c4CC(C)(C)C5)c(Cl)cn3)cn2)cn1 [Compound 20-1, (S)-N-((5-(1-((5-chloro-4-(5,5-dimethyl-5,6-dihydro-4H-pyrrolo[1,2-b]pyrazol-3-yl)pyridin-2-yl)amino)-1-oxopropan-2-yl)-[2,3′ -bipyridin]-6′-yl)methyl)acrylamide (assumed)] | 3.7 | 8.4 | 25.1 | – |
| C[C@H](C(=O)Nc1cc(-c2cnn3c2CC(C)(C)C3)c(Cl)cn1)c1ccc(-c2cccnc2)nc1 [Compound 19-1, (S)-2-([2,3′-bipyridin]-5-yl)-N-(5-chloro-4-(5,5-dimethyl-5,6-dihydro-4H-pyrrolo[1,2-b]pyrazol-3-yl)pyridin-2-yl)propionamide (assumed)] | – | – | – | 13.9 |
| CC(=O)Nc1cccc([C@@H](C)C(=O)Nc2cc(-c3cnn4c3CC(C)(C)C4)c(Cl)cn2)c1 [Compound 14-2, (R)-2-(3-acetylaminophenyl)-N-(5-chloro-4-(5,5-dimethyl-5,6-dihydro-4H-pyrrolo[1,2-b]pyrazol-3-yl)pyridin-2-yl)propionamide (assumed)] | 136 | – | – | – |
| CC1(C)Cc2c(-c3cc(NC(=O)Cc4cccc(C(N)=O)c4)ncc3Cl)cnn2C1 [Compound 1, 3-(2-((5-chloro-4-(5,5-dimethyl-5,6-dihydro-4H-pyrrolo[1,2-b]pyrazol-3-yl)pyridin-2-yl)amino)-2-oxoethyl)benzamide] | 7.4 | 3 | 96 | – |
| C[C@@H](C(=O)Nc1cc(-c2cnn3c2CC(C)(C)C3)c(Cl)cn1)c1ccnc(C(C)(C)O)c1 [Compound 18-2, (R)-N-(5-chloro-4-(5,5-dimethyl-5,6-dihydro-4H-pyrrolo[1,2-b]pyrazol-3-yl)pyridin-2-yl)-2-(2-(2-hydroxypropan-2-yl)pyridin-4-yl)propionamide (assumed)] | 25 | 3 | 74 | – |
| COc1cc([C@@H](C)C(=O)Nc2cc(-c3cnn4c3CC(C)(C)C4)c(Cl)cn2)ccn1 [Compound 16-2, (R)-N-(5-chloro-4-(5,5-dimethyl-5,6-dihydro-4H-pyrrolo[1,2-b]pyrazol-3-yl)pyridin-2-yl)-2-(2-methoxypyridin-4-yl)propionamide (assumed)] | 469 | – | – | – |
| CC1(C)Cc2c(-c3cc(NC(=O)Cc4cccc(C#N)c4)ncc3Cl)cnn2C1 [Compound 4, N-(5-chloro-4-(5,5-dimethyl-5,6-dihydro-4 H-pyrrolo[1,2-b]pyrazol-3-yl)pyridin-2-yl) -2-(3-cyanophenyl)acetamide] | 10.7 | – | – | – |
| CC1(C)Cc2c(-c3cc(NC(=O)Cc4cccnc4)ncc3Cl)cnn2C1 [Compound 6, N-(5-chloro-4-(5,5-dimethyl-5,6-dihydro-4 H-pyrrolo[1,2-b]pyrazol-3-yl)pyridin-2-yl) -2-(pyridin-3-yl)acetamide] | 9.9 | 3.1 | 197 | – |
| CC(=O)N[C@@H]1CCC[C@H](C(=O)Nc2cc(-c3cnn4c3CC(C)(C)C4)c(Cl)cn2)C1 [AZD4573, reference compound] | 4.2 | – | 109 | – |
| COc1ccc(CC(=O)Nc2cc(-c3cnn4c3CC(C)(C)C4)c(Cl)cn2)cn1 [Compound 12, N-(5-chloro-4-(5,5-dimethyl-5,6-dihydro-4 H-pyrrolo[1,2-b]pyrazol-3-yl)pyridin-2-yl) -2-(6-methoxypyridin-3-yl)acetamide] | 12.2 | 5.2 | – | – |
| C[C@H](C(=O)Nc1cc(-c2cnn3c2CC(C)(C)C3)c(Cl)cn1)c1cccc(C(N)=O)c1 [Compound 2-1, (S)-3-(1-((5-chloro-4-(5,5-dimethyl-5,6-di hydro-4H-pyrrolo[1,2-b]pyrazol-3-yl)pyridin-2-yl)amino)-1-oxopropan-2-yl)benzamide (assumed)] | > 1000 | – | – | – |
| COc1cc([C@H](C)C(=O)Nc2cc(-c3cnn4c3CC(C)(C)C4)c(Cl)cn2)ccn1 [Compound 16-1, (S)-N-(5-chloro-4-(5,5-dimethyl-5,6-dihydro-4H-pyrrolo[1,2-b]pyrazol-3-yl)pyridin-2-yl)-2-(2-methoxypyridin-4-yl)propionamide (assumed)] | 6.4 | 3.4 | – | – |
| C=CC(=O)NCc1ccc(-c2ccc([C@@H](C)C(=O)Nc3cc(-c4cnn5c4CC(C)(C)C5)c(Cl)cn3)cn2)cn1 [Compound 20-2, (R)-N-((5-(1-((5-chloro-4-(5,5-dimethyl-5,6-dihydro-4H-pyrrolo[1,2-b]pyrazol-3-yl)pyridin-2-yl)amino)-1-oxopropan-2-yl)-[2,3′ -bipyridin]-6′-yl)methyl)acrylamide (assumed)] | 850 | – | – | – |
| C[C@@H](C(=O)Nc1cc(-c2cnn3c2CC(C)(C)C3)c(Cl)cn1)c1ccnc(C#N)c1 [Compound 15-2, (R)-N-(5-chloro-4-(5,5-dimethyl-5,6-dihydro-4H-pyrrolo[1,2-b]pyrazol-3-yl)pyridin-2-yl)-2-(2-cyanopyridin-4-yl)propionamide (assumed)] | 161 | – | – | – |
| CC(=O)Nc1cccc(CC(=O)Nc2cc(-c3cnn4c3CC(C)(C)C4)c(Cl)cn2)c1 [Compound 8, 2-(3-acetylaminophenyl)-N-(5-chloro-4-(5,5-dimethyl-5,6-dihydro-4H-pyrrolo[1,2-b]pyrazol-3-yl)pyridin-2-yl)acetamide] | 19.6 | 3.4 | 116 | – |
